These results are taken from the supplement of paper PMC10307832.

Assay in all cases: relative viability (nuclei count vs DMSO), 5 days (fraction); higher = more cells survive
Compound in test [1]: C1CCC(CC1)N(CCNCCC2=C3C(=C(C=C2)O)NC(=O)CO3)C(=O)CCNCCC4=CC(=C(C=C4)Cl)Cl [AZ505] + O=C(c1cc(Cc2n[nH]c(=O)c3ccccc23)ccc1F)N1CCN(C(=O)C2CC2)CC1 [Olaparib] (partner 8 µM)
In short, it runs like this:
(§1)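 After 5 days of treatment, lung cancer cells in 1536-well plates were fixed and stained in a single step (final 0.05% Triton X-100, 1% formaldehyde, 1 ug/ml Hoechst) and their nuclei counted on 4× images. Treatment had been applied by pin tool the day after seeding as one drug alone or as a fixed anchor-drug dose with five library-drug doses (not always all listed) in √10 steps. Relative viability is the nuclei count of treated wells divided by that of vehicle wells, and values are medians of duplicate plates.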

Compound in test [2]: C1CCC(CC1)N(CCNCCC2=C3C(=C(C=C2)O)NC(=O)CO3)C(=O)CCNCCC4=CC(=C(C=C4)Cl)Cl [AZ505] + NC(=O)Nc1cc(-c2cccc(F)c2)sc1C(=O)N[C@H]1CCCNC1 [AZD7762] (partner 0.2 µM)
The essentials: as §1

Compound in test [3]: Cn1c(=O)n(-c2ccc(C(C)(C)C#N)cc2)c2c3cc(-c4cnc5ccccc5c4)ccc3ncc21 [Dactolisib] + C[C@@H](Oc1cc(-c2cnn(C3CCNCC3)c2)cnc1N)c1c(Cl)ccc(F)c1Cl [Crizotinib] (partner 1 µM)
The essentials:
as §1

Compound in test [4]: Cn1c(=O)n(-c2ccc(C(C)(C)C#N)cc2)c2c3cc(-c4cnc5ccccc5c4)ccc3ncc21 [Dactolisib] + COc1cc2c(Oc3ccc(NC(=O)C4(C(=O)Nc5ccc(F)cc5)CC4)cc3F)ccnc2cc1OCCCN1CCOCC1 [Foretinib] (partner 0.25 µM)
The essentials: as §1

With NCI-H2126, the relative viability worked out at 0.841 in test [1] (first compound 0.08 µM); 0.915 in test [1] (first compound 0.253 µM); 0.827 in test [1] (first compound 0.8 µM); 0.878 in test [1] (first compound 2.53 µM); 0.948 in test [1] (first compound 8 µM); 0.939 in test [2] (first compound 0.08 µM). The relative viability in test [2] (first compound 0.253 µM) was 1.02; in test [2] (first compound 0.8 µM), 1.02; in test [2] (first compound 2.53 µM), 0.985; in test [2] (first compound 8 µM), 1.08; in test [3] (first compound 0.002 µM), 1.07; in test [3] (first compound 0.006325 µM) it was 1.03. Further, the relative viability in test [3] (first compound 0.02 µM) was 0.98; in test [3] (first compound 0.06325 µM), 0.713; in test [3] (first compound 0.2 µM), 0.537; in test [4] (first compound 0.002 µM), 1.32; in test [4] (first compound 0.006325 µM), 1.24; in test [4] (first compound 0.02 µM), 1.08. The relative viability was found to be 0.653 in test [4] (first compound 0.06325 µM) and 0.498 in test [4] (first compound 0.2 µM).

Regarding NCI-H2170, the relative viability in test [1] (first compound 0.08 µM) was determined as 0.544; in test [1] (first compound 0.253 µM), 0.601; in test [1] (first compound 0.8 µM), 0.614; in test [1] (first compound 2.53 µM) it was 0.58; in test [1] (first compound 8 µM) it was 0.594; in test [2] (first compound 0.08 µM), 0.825. In addition, the relative viability amounted to 0.901 in test [2] (first compound 0.253 µM); 0.821 in test [2] (first compound 0.8 µM); 0.92 in test [2] (first compound 2.53 µM); 0.966 in test [2] (first compound 8 µM); 1.2 in test [3] (first compound 0.002 µM); 1.17 in test [3] (first compound 0.006325 µM). For the same cell line, the relative viability in test [3] (first compound 0.02 µM) was determined as 0.832; in test [3] (first compound 0.06325 µM) it was 0.677; in test [3] (first compound 0.2 µM), 0.331; in test [4] (first compound 0.002 µM), 0.995; in test [4] (first compound 0.006325 µM) it was 1.01; in test [4] (first compound 0.02 µM), 0.895. In addition, the relative viability in test [4] (first compound 0.06325 µM) amounted to 0.85; in test [4] (first compound 0.2 µM), 0.174.

In the case of NCI-H2347, the relative viability in test [1] (first compound 0.08 µM) was 0.554; in test [1] (first compound 0.253 µM), 0.505; in test [1] (first compound 0.8 µM), 0.489; in test [1] (first compound 2.53 µM), 0.489; in test [1] (first compound 8 µM) it was 0.52; in test [2] (first compound 0.08 µM), 0.548. Further, the relative viability in test [2] (first compound 0.253 µM) came out at 0.659; in test [2] (first compound 0.8 µM), 0.554; in test [2] (first compound 2.53 µM), 0.553; in test [2] (first compound 8 µM) it was 0.578; in test [3] (first compound 0.002 µM), 0.836; in test [3] (first compound 0.006325 µM) it was 0.619. The relative viability in test [3] (first compound 0.02 µM) worked out at 0.613; in test [3] (first compound 0.06325 µM), 0.46; in test [3] (first compound 0.2 µM) it was 0.464; in test [4] (first compound 0.002 µM), 0.848; in test [4] (first compound 0.006325 µM), 1; in test [4] (first compound 0.02 µM), 0.693. In addition, the relative viability is 0.765 in test [4] (first compound 0.06325 µM) and 0.486 in test [4] (first compound 0.2 µM).

Turning to NCI-H2405, the relative viability in test [1] (first compound 0.08 µM) turned out to be 0.742; in test [1] (first compound 0.8 µM), 0.758; in test [1] (first compound 2.53 µM), 0.788; in test [1] (first compound 8 µM), 0.828; in test [2] (first compound 0.08 µM), 0.45; in test [2] (first compound 0.8 µM) it was 0.605. Also, the relative viability in test [2] (first compound 2.53 µM) came out at 0.605; in test [2] (first compound 8 µM), 0.665; in test [3] (first compound 0.002 µM), 0.758; in test [3] (first compound 0.006325 µM), 0.867; in test [3] (first compound 0.02 µM), 0.849; in test [3] (first compound 0.06325 µM), 0.541. The relative viability in test [3] (first compound 0.2 µM) was 0.38; in test [4] (first compound 0.002 µM), 1.02; in test [4] (first compound 0.006325 µM), 1.06; in test [4] (first compound 0.02 µM) it was 1.05; in test [4] (first compound 0.06325 µM), 0.606; in test [4] (first compound 0.2 µM) it was 0.475.
